For assay [1], the target named is T1, FMS (Homo sapiens, UniProt P07333).
T1 construct: purchased Reaction Biology Corporation
Briefly: 375-member kinase panel. The format is biochemical. As to conditions: Run 1, Run 2; for % enzyme activity: 1 μM; for remaining activity at 1 µM: read-out: % enzyme activity, 1 μM.

Assay [2] deals with CDK2/cyclin E (Homo sapiens, UniProt P24941). As to conditions: 1 μM; Run 1, Run 2.
Assay [3] deals with CDK4/cyclin D3 (Homo sapiens, UniProt P11802). As to conditions: 1 μM; Run 1, Run 2.
Chain of CDK4/cyclin D3 (P11802 whole entry): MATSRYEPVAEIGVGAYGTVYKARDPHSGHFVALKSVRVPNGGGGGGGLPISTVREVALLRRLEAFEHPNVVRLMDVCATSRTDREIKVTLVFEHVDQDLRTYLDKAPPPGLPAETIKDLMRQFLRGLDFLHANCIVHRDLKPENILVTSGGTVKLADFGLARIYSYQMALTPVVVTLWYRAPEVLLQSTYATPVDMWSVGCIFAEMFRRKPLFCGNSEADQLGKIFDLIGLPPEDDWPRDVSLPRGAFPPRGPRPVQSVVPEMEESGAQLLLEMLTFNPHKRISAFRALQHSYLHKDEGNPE
Chain of CDK4/cyclin D3 (P30281 whole entry partner): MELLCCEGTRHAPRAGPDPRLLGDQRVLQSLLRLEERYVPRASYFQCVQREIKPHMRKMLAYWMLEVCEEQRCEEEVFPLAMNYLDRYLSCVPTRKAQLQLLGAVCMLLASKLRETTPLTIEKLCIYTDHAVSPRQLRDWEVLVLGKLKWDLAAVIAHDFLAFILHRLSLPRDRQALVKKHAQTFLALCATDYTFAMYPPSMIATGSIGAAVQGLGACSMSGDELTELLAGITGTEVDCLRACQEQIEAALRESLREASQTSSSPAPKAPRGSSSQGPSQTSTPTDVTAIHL
Assay [4] deals with T2, DYRK3 (Homo sapiens, UniProt O43781).
T2 sequence (O43781 1-588): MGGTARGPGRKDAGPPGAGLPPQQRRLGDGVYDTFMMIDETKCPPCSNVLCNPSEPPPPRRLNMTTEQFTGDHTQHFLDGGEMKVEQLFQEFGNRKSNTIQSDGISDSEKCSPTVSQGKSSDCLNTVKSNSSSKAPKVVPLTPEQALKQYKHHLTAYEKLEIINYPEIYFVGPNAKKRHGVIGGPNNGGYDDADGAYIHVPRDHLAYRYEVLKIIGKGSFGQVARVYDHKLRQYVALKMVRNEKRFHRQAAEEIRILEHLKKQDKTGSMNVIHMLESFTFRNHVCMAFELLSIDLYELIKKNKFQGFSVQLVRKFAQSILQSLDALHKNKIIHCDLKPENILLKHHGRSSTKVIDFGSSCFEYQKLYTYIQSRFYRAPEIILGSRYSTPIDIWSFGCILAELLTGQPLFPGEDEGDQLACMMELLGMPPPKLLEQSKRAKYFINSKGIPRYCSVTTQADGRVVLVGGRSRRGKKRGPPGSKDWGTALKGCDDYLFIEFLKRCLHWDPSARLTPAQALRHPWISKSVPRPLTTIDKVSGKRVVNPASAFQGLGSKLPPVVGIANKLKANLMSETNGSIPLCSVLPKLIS
The conditions noted are these: 1 μM; Run 1, Run 2.

Assay [5] has as its target FYN (Homo sapiens, UniProt P06241). The conditions noted are these: 1 μM; Run 1, Run 2.
Assay [6] has as its target JAK2 (Homo sapiens, UniProt O60674). The conditions noted are these: 1 μM; Run 1, Run 2.
Assay [7] has as its target T3, LATS1 (Homo sapiens, UniProt O95835).
T3 sequence (O95835 1-1130): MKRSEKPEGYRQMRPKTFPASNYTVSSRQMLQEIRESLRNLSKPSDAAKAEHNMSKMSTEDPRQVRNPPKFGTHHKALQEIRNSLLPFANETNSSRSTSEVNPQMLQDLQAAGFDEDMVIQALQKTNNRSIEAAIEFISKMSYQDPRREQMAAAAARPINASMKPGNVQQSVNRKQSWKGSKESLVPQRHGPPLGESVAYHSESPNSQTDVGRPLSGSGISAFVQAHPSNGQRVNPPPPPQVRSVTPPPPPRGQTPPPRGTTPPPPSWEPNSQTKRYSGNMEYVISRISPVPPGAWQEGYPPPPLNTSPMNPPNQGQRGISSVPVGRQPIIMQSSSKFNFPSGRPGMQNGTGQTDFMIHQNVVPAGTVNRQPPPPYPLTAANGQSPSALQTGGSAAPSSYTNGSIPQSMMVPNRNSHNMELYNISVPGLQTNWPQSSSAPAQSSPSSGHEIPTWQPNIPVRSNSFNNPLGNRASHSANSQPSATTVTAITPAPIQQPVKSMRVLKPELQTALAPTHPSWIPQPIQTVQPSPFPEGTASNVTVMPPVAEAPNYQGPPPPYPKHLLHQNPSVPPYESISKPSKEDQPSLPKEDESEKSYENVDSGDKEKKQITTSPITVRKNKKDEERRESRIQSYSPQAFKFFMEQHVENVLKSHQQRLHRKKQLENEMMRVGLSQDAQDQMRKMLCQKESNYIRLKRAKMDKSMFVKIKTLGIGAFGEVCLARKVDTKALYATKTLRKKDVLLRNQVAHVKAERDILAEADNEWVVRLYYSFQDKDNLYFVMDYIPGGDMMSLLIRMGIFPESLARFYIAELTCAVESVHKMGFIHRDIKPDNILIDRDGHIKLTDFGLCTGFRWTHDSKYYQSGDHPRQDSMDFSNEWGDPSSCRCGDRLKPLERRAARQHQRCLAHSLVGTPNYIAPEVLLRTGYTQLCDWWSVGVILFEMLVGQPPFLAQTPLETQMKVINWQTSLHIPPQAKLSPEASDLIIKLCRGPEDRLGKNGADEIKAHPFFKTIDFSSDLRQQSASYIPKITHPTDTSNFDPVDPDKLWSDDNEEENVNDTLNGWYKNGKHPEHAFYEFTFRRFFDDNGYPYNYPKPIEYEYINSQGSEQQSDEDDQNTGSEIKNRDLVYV
As to conditions: 1 μM; Run 1, Run 2.

The target of assay [8] is ROCK1 (Homo sapiens, UniProt Q13464). As to conditions: 1 μM; Run 1, Run 2.
Chain of ROCK1 (Q13464 whole entry): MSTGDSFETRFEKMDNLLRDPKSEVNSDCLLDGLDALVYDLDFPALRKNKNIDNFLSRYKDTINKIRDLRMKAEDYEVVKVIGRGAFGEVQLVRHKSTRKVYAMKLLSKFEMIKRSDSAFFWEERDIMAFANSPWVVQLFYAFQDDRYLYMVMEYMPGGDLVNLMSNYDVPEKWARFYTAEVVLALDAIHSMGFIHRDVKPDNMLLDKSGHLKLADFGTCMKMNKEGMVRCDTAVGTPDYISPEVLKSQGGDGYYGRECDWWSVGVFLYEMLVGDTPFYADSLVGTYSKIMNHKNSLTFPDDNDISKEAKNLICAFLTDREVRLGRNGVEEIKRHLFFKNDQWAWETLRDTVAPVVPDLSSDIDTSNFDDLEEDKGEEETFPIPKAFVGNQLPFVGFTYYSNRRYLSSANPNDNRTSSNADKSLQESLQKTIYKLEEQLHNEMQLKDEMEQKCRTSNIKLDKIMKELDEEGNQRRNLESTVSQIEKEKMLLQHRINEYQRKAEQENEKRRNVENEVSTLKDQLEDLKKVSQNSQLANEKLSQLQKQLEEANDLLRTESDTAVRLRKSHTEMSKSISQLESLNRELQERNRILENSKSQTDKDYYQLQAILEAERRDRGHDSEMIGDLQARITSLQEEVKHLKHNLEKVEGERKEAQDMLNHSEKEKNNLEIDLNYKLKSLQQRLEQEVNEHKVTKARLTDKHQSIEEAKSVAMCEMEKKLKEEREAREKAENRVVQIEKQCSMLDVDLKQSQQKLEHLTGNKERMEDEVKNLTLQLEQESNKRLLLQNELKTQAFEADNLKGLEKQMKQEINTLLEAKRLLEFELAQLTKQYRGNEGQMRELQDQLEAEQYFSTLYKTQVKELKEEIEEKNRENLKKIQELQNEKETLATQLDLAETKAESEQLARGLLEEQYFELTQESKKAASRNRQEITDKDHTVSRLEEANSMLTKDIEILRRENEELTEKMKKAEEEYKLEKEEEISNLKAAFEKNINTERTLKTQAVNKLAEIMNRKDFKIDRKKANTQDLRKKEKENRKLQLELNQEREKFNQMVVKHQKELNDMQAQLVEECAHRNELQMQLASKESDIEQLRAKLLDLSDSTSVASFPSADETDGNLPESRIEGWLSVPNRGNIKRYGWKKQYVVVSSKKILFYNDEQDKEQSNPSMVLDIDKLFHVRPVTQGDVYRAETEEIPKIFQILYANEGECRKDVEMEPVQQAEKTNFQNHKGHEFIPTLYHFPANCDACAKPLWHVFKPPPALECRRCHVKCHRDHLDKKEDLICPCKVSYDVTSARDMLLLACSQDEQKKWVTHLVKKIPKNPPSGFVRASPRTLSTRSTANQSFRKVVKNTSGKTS
For assay [9], the target named is AKT3 (Homo sapiens, UniProt Q9Y243). The assay is described as follows: biochemical. As to conditions: read-out: % enzyme activity, 1 μM; Run 1, Run 2.
Chain of AKT3 (Q9Y243 whole entry): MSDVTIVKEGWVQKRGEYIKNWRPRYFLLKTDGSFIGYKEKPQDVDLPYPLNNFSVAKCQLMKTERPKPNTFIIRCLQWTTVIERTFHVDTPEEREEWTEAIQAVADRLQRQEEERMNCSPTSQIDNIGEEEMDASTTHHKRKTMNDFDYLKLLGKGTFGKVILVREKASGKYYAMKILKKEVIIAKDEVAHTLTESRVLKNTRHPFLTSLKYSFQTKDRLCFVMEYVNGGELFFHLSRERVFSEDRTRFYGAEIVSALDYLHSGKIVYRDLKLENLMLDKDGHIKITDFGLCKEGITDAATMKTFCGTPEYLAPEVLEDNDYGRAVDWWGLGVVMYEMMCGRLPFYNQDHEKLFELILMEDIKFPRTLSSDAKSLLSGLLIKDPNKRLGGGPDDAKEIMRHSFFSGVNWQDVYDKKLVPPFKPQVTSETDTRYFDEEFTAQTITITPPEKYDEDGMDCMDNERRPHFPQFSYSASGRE
Assay [10] has as its target CAMK2a (Homo sapiens, UniProt Q9UQM7). The assay is described as follows: biochemical. The conditions noted are these: read-out: % enzyme activity, 1 μM; Run 1, Run 2.
The target in assay [11] is STK38L/NDR2 (Homo sapiens, UniProt Q9Y2H1). The assay is described as follows: biochemical. As to conditions: read-out: % enzyme activity, 1 μM; Run 1, Run 2.

T1 sequence (P07333 20-972): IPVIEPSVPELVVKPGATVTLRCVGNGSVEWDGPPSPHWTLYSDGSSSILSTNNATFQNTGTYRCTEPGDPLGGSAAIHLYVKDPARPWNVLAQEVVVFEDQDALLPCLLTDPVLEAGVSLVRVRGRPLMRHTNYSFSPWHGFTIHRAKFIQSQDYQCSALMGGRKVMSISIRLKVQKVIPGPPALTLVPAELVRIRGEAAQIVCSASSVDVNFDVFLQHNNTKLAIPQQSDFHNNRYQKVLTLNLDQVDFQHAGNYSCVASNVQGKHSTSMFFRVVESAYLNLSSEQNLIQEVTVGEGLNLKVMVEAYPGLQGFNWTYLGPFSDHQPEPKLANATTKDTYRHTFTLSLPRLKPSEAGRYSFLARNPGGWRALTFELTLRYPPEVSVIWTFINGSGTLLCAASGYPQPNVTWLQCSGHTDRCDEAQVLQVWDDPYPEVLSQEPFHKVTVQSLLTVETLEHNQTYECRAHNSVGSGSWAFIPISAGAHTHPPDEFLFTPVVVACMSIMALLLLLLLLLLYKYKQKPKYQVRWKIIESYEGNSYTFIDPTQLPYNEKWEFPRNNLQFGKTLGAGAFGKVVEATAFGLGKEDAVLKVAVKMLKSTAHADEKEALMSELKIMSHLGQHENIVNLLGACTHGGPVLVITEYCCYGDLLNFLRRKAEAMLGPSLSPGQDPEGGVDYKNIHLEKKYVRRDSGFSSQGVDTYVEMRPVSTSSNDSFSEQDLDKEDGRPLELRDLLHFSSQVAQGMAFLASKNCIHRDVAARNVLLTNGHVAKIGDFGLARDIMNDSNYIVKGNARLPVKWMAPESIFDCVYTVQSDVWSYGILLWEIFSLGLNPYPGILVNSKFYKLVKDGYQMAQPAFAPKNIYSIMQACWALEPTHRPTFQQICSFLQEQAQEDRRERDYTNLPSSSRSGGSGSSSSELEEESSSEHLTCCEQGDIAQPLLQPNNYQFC
Chain of JAK2 (O60674 whole entry): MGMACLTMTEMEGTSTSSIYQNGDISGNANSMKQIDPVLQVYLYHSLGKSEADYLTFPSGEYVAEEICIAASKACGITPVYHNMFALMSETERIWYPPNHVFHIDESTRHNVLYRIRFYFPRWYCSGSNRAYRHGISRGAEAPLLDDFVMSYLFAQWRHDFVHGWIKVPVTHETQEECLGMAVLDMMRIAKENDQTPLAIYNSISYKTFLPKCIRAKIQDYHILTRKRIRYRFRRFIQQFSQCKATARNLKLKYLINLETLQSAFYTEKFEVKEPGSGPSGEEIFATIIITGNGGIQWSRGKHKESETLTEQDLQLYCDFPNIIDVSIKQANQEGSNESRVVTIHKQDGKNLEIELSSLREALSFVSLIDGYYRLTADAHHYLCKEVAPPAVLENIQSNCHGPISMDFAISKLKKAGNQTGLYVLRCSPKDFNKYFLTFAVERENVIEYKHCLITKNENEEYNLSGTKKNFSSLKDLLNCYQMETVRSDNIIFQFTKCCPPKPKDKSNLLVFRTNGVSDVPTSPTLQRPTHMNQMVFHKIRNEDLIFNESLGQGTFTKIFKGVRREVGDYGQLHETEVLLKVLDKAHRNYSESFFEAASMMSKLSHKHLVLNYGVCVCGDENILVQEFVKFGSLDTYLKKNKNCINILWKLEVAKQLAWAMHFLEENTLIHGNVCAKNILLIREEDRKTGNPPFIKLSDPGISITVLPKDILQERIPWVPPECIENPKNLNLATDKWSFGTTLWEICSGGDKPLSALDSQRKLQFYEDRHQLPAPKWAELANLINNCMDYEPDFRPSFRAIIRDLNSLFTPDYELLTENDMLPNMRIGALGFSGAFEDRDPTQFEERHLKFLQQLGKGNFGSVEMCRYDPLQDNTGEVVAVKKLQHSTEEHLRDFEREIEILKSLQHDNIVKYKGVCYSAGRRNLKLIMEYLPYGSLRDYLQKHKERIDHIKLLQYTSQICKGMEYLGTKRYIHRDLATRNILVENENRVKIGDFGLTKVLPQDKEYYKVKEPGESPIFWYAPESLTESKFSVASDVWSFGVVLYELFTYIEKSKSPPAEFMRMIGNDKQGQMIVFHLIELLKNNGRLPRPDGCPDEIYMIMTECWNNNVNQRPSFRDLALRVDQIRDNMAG
Chain of FYN (P06241 whole entry): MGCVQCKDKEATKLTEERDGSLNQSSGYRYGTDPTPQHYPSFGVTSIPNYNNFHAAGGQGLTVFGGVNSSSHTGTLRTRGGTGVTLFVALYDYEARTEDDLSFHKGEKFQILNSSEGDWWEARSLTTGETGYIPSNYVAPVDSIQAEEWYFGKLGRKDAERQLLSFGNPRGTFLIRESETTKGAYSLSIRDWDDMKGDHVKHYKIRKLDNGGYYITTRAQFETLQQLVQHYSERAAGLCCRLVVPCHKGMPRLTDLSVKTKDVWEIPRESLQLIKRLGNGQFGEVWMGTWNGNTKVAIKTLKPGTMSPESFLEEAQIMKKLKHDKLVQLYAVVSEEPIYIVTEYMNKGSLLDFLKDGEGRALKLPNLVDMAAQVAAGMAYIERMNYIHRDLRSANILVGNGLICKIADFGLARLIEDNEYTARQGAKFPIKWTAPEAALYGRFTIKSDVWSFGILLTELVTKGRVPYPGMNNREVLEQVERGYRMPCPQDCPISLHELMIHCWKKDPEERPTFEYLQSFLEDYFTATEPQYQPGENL

In the case of `COc1cc(-c2cncc(-c3ccc(N4CCN(C)CC4)cc3)c2C)cc(F)c1C(N)=O` [Compound 26a, 2-Fluoro-6-methoxy-4-(4-methyl-5-(4-(4-methylpiperazin-1-yl)phenyl)pyridin-3-yl)benzamide], the “% enzyme activity” value in [1] came out at 75.66%; in [2] it was 104.52%; in [3] it was 96.96%; in assay [4], 88.30%; in assay [5] it was 97.69%; in assay [6], 92.09%. Also, the results for the “% enzyme activity” value in assay [7] and in [8] were 97.31% and 91.98%, respectively. Further, the remaining activity at 1 µM in assay [1] worked out at 82.2%; in assay [9] it was 95%; in assay [10], 85.5%; in assay [11] it was 99.4%.
Consider `COc1cc(-c2cncc(-c3ccc(N4C[C@@H](C)N(C)[C@@H](C)C4)cc3)c2C)cc(F)c1C(N)=O` [Compound 26c, 2-Fluoro-6-methoxy-4-(4-methyl-5-(4-((3R,5S)-3,4,5-trimethylpiperazin-1-yl)phenyl)pyridin-3-yl)benzamide], for which the “% enzyme activity” value in assay [1] is given as 78.83%; in [2], 102.10%; in assay [3], 95.54%; in assay [4] it was 96.01%; in [5], 96.30%; in [6], 88.17%. Also, the entries for the “% enzyme activity” value in assay [7] and in [8] were 100.53% and 92.61%, respectively. Further, the remaining activity at 1 µM came to 79.5% in assay [1], 98.7% in [9], 96.7% in [10] and 104% in assay [11].

The values are drawn from article PMC8213057, “Targeting ALK2: An Open Science Approach to Developing Therapeutics for the Treatment of Diffuse Intrinsic Pontine Glioma” (Journal of Medicinal Chemistry, 2020).
